# Structures can show the parent of a compound that is named as a salt.
# Test system: patients with seasonal allergic rhinitis (SAR)
# Experiment: MP 428 two-week randomized double-blind study: Total Nasal Symptom Score (TNSS), change from baseline
# Format: in vivo, human
# Design: key to Change from Baseline in AM TNSS, Mean / Change from Baseline in AM TNSS, LS Mean / Change from Baseline in AM TNSS, Median: TNSS sum of 4 symptoms each 0-3 (0=none, 3=severe); change from baseline
# Description: A two-week, randomized, double-blind study, which evaluated the effects of the co-administration of ASTELIN® (azelastine hydrochloride (HCl)) and FLONASE® (fluticasone propionate) compared to either product alone in patients with seasonal allergic rhinitis (SAR) was conducted during the 2006 Texas mountain cedar season. After a 5-day placebo lead-in period, 151 patients with moderate-to-severe allergic rhinitis symptoms were randomized to either: (1) (49 total patients) ASTELIN® (azelastine hydrochloride (HCl)) plus placebo saline nasal spray 2 sprays per nostril, 15 minutes apart, twice daily (AM & PM); (2) (50 total patients) FLONASE® (fluticasone propionate) plus placebo saline nasal spray, 2 sprays per nostril, 15 minutes apart, once daily (AM) and two sessions of placebo saline nasal spray, 2 sprays per nostril, 15 minutes apart (PM); or (3) (52 total patients) the co-administration of ASTELIN® (azelastine hydrochloride (HCl)) 2 sprays per nostril plus FLONASE® (fluticasone propionate) 2 sprays per nostril (AM), 15 minutes apart, and ASTELIN® (azelastine hydrochloride (HCl)) 2 sprays per nostril plus placebo saline nasal spray, 15 minutes apart, (PM) for a 2-week double-blind treatment period.
# The primary efficacy variable was the change from baseline in the Total Nasal Symptom Score (TNSS), which comprised sneezing, itchy nose, runny nose, and nasal congestion (individual symptoms scores were assigned a value between 0 and 3, where 0=no symptoms and 3=severe symptoms). This study was not statistically designed to assess the differences between ASTELIN® and FLONASE®.
# [1] = Day 9, Intent-to-Treat Population
# [2] = Day 10, Intent-to-Treat Population
# [3] = Day 10, Per-Protocol Population
# [4] = Day 11, Intent-to-Treat Population
# [5] = Day 11, Per-Protocol Population
# [6] = Day 12, Intent-to-Treat Population
smiles,measurement,setting,value
"CN1CCCC(n2nc(Cc3ccc(Cl)cc3)c3ccccc3c2=O)CC1 (racemic) [Azelastine, (±)-1-(2H)-phthalazinone, 4-[(4-chlorophenyl)methyl]-2-(hexahydro-1-methyl-1H-azepin-4-yl)-, mono-hydrochloride]","Change from Baseline in AM TNSS, Median",[1],−2.00
same,"Change from Baseline in AM and PM Combined TNSS, Mean",[1],−5.38
same,"Change from Baseline in AM and PM Combined TNSS, Median",[1],−3.83
same,"Change from Baseline in PM TNSS, LS Mean",[1],−2.78
same,"Change from Baseline in PM TNSS, Mean",[1],−2.86
same,"Change from Baseline in PM TNSS, Median",[1],−2.33
same,"Percent Change from Baseline in AM TNSS, LS Mean",[1],−26.38%
same,"Percent Change from Baseline in AM TNSS, Mean",[1],−26.20%
same,"Percent Change from Baseline in AM TNSS, Median",[1],−22.22%
same,"Percent Change from Baseline in AM and PM Combined TNSS, LS Mean",[1],−27.79%
same,"Percent Change from Baseline in AM and PM Combined TNSS, Mean",[1],−27.72%
same,"Percent Change from Baseline in AM and PM Combined TNSS, Median",[1],−19.35%
same,"Percent Change from Baseline in PM TNSS, LS Mean",[1],−28.94%
same,"Percent Change from Baseline in PM TNSS, Mean",[1],−28.91%
same,"Percent Change from Baseline in PM TNSS, Median",[1],−25.00%
same,"Change from Baseline in AM and PM Combined TNSS, LS Mean","Day 9, Intent-to-Treat Population, ANCOVA model",−5.36
same,"Change from Baseline in AM and PM Combined TNSS, LS Mean","Day 9, Per-Protocol Population",−5.32
same,"Change from Baseline in AM and PM Combined TNSS, Mean","Day 9, Per-Protocol Population",−5.38
same,"Change from Baseline in AM and PM Combined TNSS, Median","Day 9, Per-Protocol Population",−3.83
same,"Percent Change from Baseline in AM and PM Combined TNSS, LS Mean","Day 9, Per-Protocol Population",−27.68%
same,"Percent Change from Baseline in AM and PM Combined TNSS, Mean","Day 9, Per-Protocol Population",−27.72%
same,"Percent Change from Baseline in AM and PM Combined TNSS, Median","Day 9, Per-Protocol Population",−19.35%
same,"Change from Baseline in AM TNSS, LS Mean",[2],−2.29
same,"Change from Baseline in AM TNSS, Mean",[2],−2.27
same,"Change from Baseline in AM TNSS, Median",[2],−2.17
same,"Change from Baseline in AM and PM Combined TNSS, Mean",[2],−5.36
same,"Change from Baseline in AM and PM Combined TNSS, Median",[2],−5.33
same,"Change from Baseline in PM TNSS, LS Mean",[2],−3.01
same,"Change from Baseline in PM TNSS, Mean",[2],−3.08
same,"Change from Baseline in PM TNSS, Median",[2],−3.00
same,"Percent Change from Baseline in AM TNSS, LS Mean",[2],−23.62%
same,"Percent Change from Baseline in AM TNSS, Mean",[2],−23.81%
same,"Percent Change from Baseline in AM TNSS, Median",[2],−23.64%
same,"Percent Change from Baseline in AM and PM Combined TNSS, LS Mean",[2],−27.60%
same,"Percent Change from Baseline in AM and PM Combined TNSS, Mean",[2],−27.81%
same,"Percent Change from Baseline in AM and PM Combined TNSS, Median",[2],−28.93%
same,"Percent Change from Baseline in PM TNSS, LS Mean",[2],−31.30%
same,"Percent Change from Baseline in PM TNSS, Mean",[2],−31.29%
same,"Percent Change from Baseline in PM TNSS, Median",[2],−33.33%
same,"Change from Baseline in AM and PM Combined TNSS, LS Mean","Day 10, Intent-to-Treat Population, ANCOVA model",−5.29
same,"Change from Baseline in AM and PM Combined TNSS, LS Mean",[3],−5.25
same,"Change from Baseline in AM and PM Combined TNSS, Mean",[3],−5.36
same,"Change from Baseline in AM and PM Combined TNSS, Median",[3],−5.33
same,"Percent Change from Baseline in AM and PM Combined TNSS, LS Mean",[3],−27.49%
same,"Percent Change from Baseline in AM and PM Combined TNSS, Mean",[3],−27.81%
same,"Percent Change from Baseline in AM and PM Combined TNSS, Median",[3],−28.93%
same,"Change from Baseline in AM TNSS, LS Mean",[4],−2.53
same,"Change from Baseline in AM TNSS, Mean",[4],−2.48
same,"Change from Baseline in AM TNSS, Median",[4],−2.00
same,"Change from Baseline in AM and PM Combined TNSS, Mean",[4],−5.77
same,"Change from Baseline in AM and PM Combined TNSS, Median",[4],−4.70
same,"Change from Baseline in PM TNSS, LS Mean",[4],−3.20
same,"Change from Baseline in PM TNSS, Mean",[4],−3.29
same,"Change from Baseline in PM TNSS, Median",[4],−3.33
same,"Percent Change from Baseline in AM TNSS, LS Mean",[4],−25.86%
same,"Percent Change from Baseline in AM TNSS, Mean",[4],−25.65%
same,"Percent Change from Baseline in AM TNSS, Median",[4],−19.40%
same,"Percent Change from Baseline in AM and PM Combined TNSS, LS Mean",[4],−29.24%
same,"Percent Change from Baseline in AM and PM Combined TNSS, Mean",[4],−29.42%
same,"Percent Change from Baseline in AM and PM Combined TNSS, Median",[4],−26.11%
same,"Percent Change from Baseline in PM TNSS, LS Mean",[4],−32.80%
same,"Percent Change from Baseline in PM TNSS, Mean",[4],−32.77%
same,"Percent Change from Baseline in PM TNSS, Median",[4],−33.96%
same,"Change from Baseline in AM and PM Combined TNSS, LS Mean","Day 11, Intent-to-Treat Population, ANCOVA model",−5.70
same,"Change from Baseline in AM and PM Combined TNSS, LS Mean",[5],−5.64
same,"Change from Baseline in AM and PM Combined TNSS, Mean",[5],−5.77
same,"Change from Baseline in AM and PM Combined TNSS, Median",[5],−4.70
same,"Percent Change from Baseline in AM and PM Combined TNSS, LS Mean",[5],−29.05%
same,"Percent Change from Baseline in AM and PM Combined TNSS, Mean",[5],−29.42%
same,"Percent Change from Baseline in AM and PM Combined TNSS, Median",[5],−26.11%
same,"Change from Baseline in AM TNSS, LS Mean",[6],−2.60
same,"Change from Baseline in AM TNSS, Mean",[6],−2.58
same,"Change from Baseline in AM TNSS, Median",[6],−2.50
same,"Change from Baseline in AM and PM Combined TNSS, Mean",[6],−5.54
same,"Change from Baseline in AM and PM Combined TNSS, Median",[6],−5.00
same,"Change from Baseline in PM TNSS, LS Mean",[6],−2.85
same,"Change from Baseline in PM TNSS, Mean",[6],−2.96
same,"Change from Baseline in PM TNSS, Median",[6],−2.40
same,"Percent Change from Baseline in AM TNSS, LS Mean",[6],−26.61%
same,"Percent Change from Baseline in AM TNSS, Mean",[6],−26.72%
same,"Percent Change from Baseline in AM TNSS, Median",[6],−26.32%
same,"Percent Change from Baseline in AM and PM Combined TNSS, LS Mean",[6],−27.99%
same,"Percent Change from Baseline in AM and PM Combined TNSS, Mean",[6],−28.25%
same,"Percent Change from Baseline in AM and PM Combined TNSS, Median",[6],−25.86%
same,"Percent Change from Baseline in PM TNSS, LS Mean",[6],−29.18%
same,"Percent Change from Baseline in PM TNSS, Mean",[6],−29.44%
